Earlier results, collected in publication PMC10800708, “Efficacies and ADME properties of redox active methylene blue and phenoxazine analogues for use in new antimalarial triple drug combinations with amino-artemisinins” (Frontiers in Pharmacology, 2024).

Legend:
[1] = tested on: multidrug resistant Pf K1 strain; set-up: method as in Wittlin et al., 2013; settings: tritiated hypoxanthine assay; ref Wittlin et al., 2013; read-out: Activity against multidrug resistant Pf K1 strain; cited from earlier work
[2] = set-up: method as in Wittlin et al., 2013; settings: ref Wittlin et al., 2013; cited from earlier work
[3] = set-up: method as in Gibhard et al., 2021; settings: murine model, ref Gibhard et al., 2021; cited from earlier work
[4] = set-up: method as in Agency, 2009; settings: ref Agency, 2009; cited from earlier work
[5] = tested on: asexual blood stage of P. falciparum; set-up: method as in Coertzen et al., 2018; settings: ref Coertzen et al., 2018; cited from earlier work
gametocytes = tested on: gametocytes; set-up: method as in Coertzen et al., 2018; settings: ref Coertzen et al., 2018; cited from earlier work
[6] = human, in vivo; cited from earlier work

## CCN(CC)c1ccc2nc3c4ccccc4/c(=N\c4ccncc4)cc-3oc2c1 [SSJ-183]
[1]
  IC50: 7.6 nM
[2]
  half-life: 10.3 h

## C[C@H]1[C@H](N2CCSCC2)O[C@@H]2O[C@@]3(C)CC[C@H]4[C@H](C)CC[C@@H]1[C@@]24OO3 [artemiside]
[3]
  Cmax relative to that after oral administration of artemisone: 2.6 fold

## CN(C)c1ccc2nc3ccc(=[N+](C)C)cc-3sc2c1 [MB, methylene blue]
[4]
  Protein bound: 94%
[5]
  Interaction with artemisone against the asexual blood stage: only an additive effect
gametocytes
  Interaction with artemisone, gametocytocidal activity: synergistically enhanced
[6]
  Bioavailability: 72.3± 23.9%
  Mean terminal half-life: 5.25 h
